From patent US20130072533A1, “COMPOUNDS WITH BOTH ANALGESIC AND ANTI-HYPERALGESIC EFFICACY” (priority 2010, published 2013)
Structures can show the parent of a compound that is named as a salt.

What was measured:
[1] = tested on: hyperalgesia induced in the rat by loose ligation of the sciatic nerve; test: Paw pressure test, rat mononeuropathy (loose ligation of the sciatic nerve); assay type: in vivo
Protocol: In particular, a racemic mixture of the compounds of formula (I) in the form of sodium salt, in which the stereogenic centre deriving from camosine is in the L configuration, was subjected to in vivo pharmacological tests which have enabled their surprising analgesic effects to be discovered.
The observed effect is greater, albeit slightly, than that obtained by tramadol 100 mg kg^−1 per os and pregabalin 200 mg kg^−1 per os, in the same experimental model.

[2] = tested on: acetic acid induced writhes in mice; test: Abdominal writhing test (acetic acid 0.6%); assay type: in vivo, mouse
Protocol: The 10 mg kg^−1 per os dose was also found to be effective.

[3] = tested on: spontaneous motility and exploratory activity of the mouse; test: Hole-board test; assay type: in vivo
Excerpt: (§1) In particular, in the case of the rotarod, the number of falls from the rotating rod progressively decreases with repeated falls. This confirms that the observed anti-hyperalgesic effects are not due to a change in the animal's behaviour.

[4] = tested on: motor coordination of the mouse; test: Rotarod test; assay type: in vivo
Excerpt: as §1

[5] = tested on: osteoarthritis induced pain (MIA) in the rat; test: Paw pressure test, osteoarthritis induced pain (intra-articular monosodium iodoacetate); assay type: in vivo; details: for PAW PRESSURE, AFTER TREATMENT (15 min) / PAW PRESSURE, AFTER TREATMENT 30 min / PAW PRESSURE, Pre-test: MIA rats
Protocol: At the same doses of 10 and 30 mg kg^−1 per os, the racemic mixture under study was also found to be effective in reversing the pain threshold reduction induced by the intra-articular Injection of monoiodide acetate at a dose of 2 mg in a 25 μl volume (osteoarthritis model). In this case the effect is statistically significant up to 45 minutes after administration at the lower dose and up to 60 minutes at the three-fold dose.

[6] = tested on: pain threshold of the mouse; test: Hot plate test (acute thermal stimulus); assay type: in vivo; details: for HOT PLATE TEST, 15 min / HOT PLATE TEST, 30 min / HOT PLATE TEST, 45 min / HOT PLATE TEST, 60 min / HOT PLATE TEST, Pre-test: mice
[7] = tested on: oxaliplatin induced hyperalgesia in the rat; test: Paw pressure test, oxaliplatin-induced hyperalgesia; assay type: in vivo; details: oxaliplatin rats
[8] = 30 mg kg^−1 per os, 30 min before the test

SMILES: O=C(CCCCC1CCSS1)NCCC(=O)NC(Cc1cnc[nH]1)C(=O)O (racemic) (as salt: sodium) [Compound 2]
- melting point: > 213 °C (dec.)

SMILES: CC(C)C[C@H](CN)CC(=O)O [PREGABALIN, pregabalin, reference compound]
- PAW PRESSURE, AFTER TREATMENT (15 min) ([1]; 200 mg/kg per os, left paw): 70.4 ± 3.5 g
- PAW PRESSURE, BEFORE TREATMENT ([1]; 200 mg/kg per os, left paw): 57.3 ± 3.5 g
- PAW PRESSURE, AFTER TREATMENT (15 min) ([1]; 200 mg/kg per os, right paw): 58.2 ± 3.1 g
- PAW PRESSURE, BEFORE TREATMENT ([1]; 200 mg/kg per os, right paw): 26.3 ± 3.0 g

SMILES: COc1cccc(C2(O)CCCCC2CN(C)C)c1 (stereo not drawn) [TRAMADOL, tramadol, reference compound]
- PAW PRESSURE, AFTER TREATMENT (15 min) ([1]; 100 mg/kg per os, left paw): 72.3 ± 3.0^ g
- PAW PRESSURE, BEFORE TREATMENT ([1]; 100 mg/kg per os, left paw): 58.3 ± 3.1 g
- PAW PRESSURE, AFTER TREATMENT (15 min) ([1]; 100 mg/kg per os, right paw): 55.8 ± 2.5 g
- PAW PRESSURE, BEFORE TREATMENT ([1]; 100 mg/kg per os, right paw): 25.7 ± 2.2 g

SMILES: CC(C)Cc1ccc(C(C)C(=O)O)cc1 (stereo not drawn) [IBUPROFEN, ibuprofen, reference compound]
- no. of writhes [2, 8]: 20.3 ± 2.2
- no. of writhes ([2]; 100 mg kg^−1 per os, 30 min before the test): 13.5 ± 2.0

SMILES: O=C(CCCCC1CCSS1)NCCC(=O)NC(Cc1cnc[nH]1)C(=O)O (racemic) [Compound 2]
- change of behavioural parameters: spontaneous motility and exploratory activity (hole-board) ([3]; 30 mg kg^−1 per os): does not alter the behavioural parameters
- No. of inspections ([3]; 30 mg/kg per os, mice): 37.8 ± 7.5
- No. of movements ([3]; 30 mg/kg per os, mice): 30.3 ± 7.7
- change of behavioural parameters: motor coordination (rotarod) ([4]; 30 mg kg^−1 per os): does not alter the behavioural parameters
- FALLS IN 30 SEC, 15 min ([4]; 30 mg/kg per os, mice, 15 min): 3.9 ± 0.3
- FALLS IN 30 SEC, 30 min ([4]; 30 mg/kg per os, mice, 30 min): 1.3 ± 0.3
- FALLS IN 30 SEC, 45 min ([4]; 30 mg/kg per os, mice, 45 min): 0.8 ± 0.2
- FALLS IN 30 SEC, Pre-test ([4]; 30 mg/kg per os, mice, pre-test): 5.2 ± 0.3
- PAW PRESSURE, AFTER TREATMENT (15 min) ([5]; 10 mg/kg p.o.): 49.3 ± 2.5 g
- PAW PRESSURE, AFTER TREATMENT 30 min ([5]; 10 mg/kg p.o.): 45.3 ± 3.9 g
- PAW PRESSURE, Pre-test ([5]; 10 mg/kg p.o.): 24.5 ± 2.1 g
- PAW PRESSURE, AFTER TREATMENT (15 min) ([5]; 30 mg/kg p.o.): 59.1 ± 3.3 g
- PAW PRESSURE, AFTER TREATMENT 30 min ([5]; 30 mg/kg p.o.): 54.7 ± 3.6 g
- PAW PRESSURE, Pre-test ([5]; 30 mg/kg p.o.): 24.4 ± 2.5 g
- time after administration up to which the effect is statistically significant ([5]; lower dose (10 mg kg^−1 per os)): up to 45 minutes
- time after administration up to which the effect is statistically significant ([5]; three-fold dose (30 mg kg^−1 per os)): up to 60 minutes
- HOT PLATE TEST, 15 min ([6]; 1 mg/kg per os): 18.7 ± 2.7
- HOT PLATE TEST, 30 min ([6]; 1 mg/kg per os): 25.1 ± 2.7
- HOT PLATE TEST, 45 min ([6]; 1 mg/kg per os): 14.0 ± 2.0
- HOT PLATE TEST, 60 min ([6]; 1 mg/kg per os): 15.7 ± 2.6
- HOT PLATE TEST, Pre-test ([6]; 1 mg/kg per os): 15.7 ± 0.8
- HOT PLATE TEST, 15 min ([6]; 10 mg/kg per os): 25.9 ± 2.8
- HOT PLATE TEST, 30 min ([6]; 10 mg/kg per os): 22.3 ± 2.6
- HOT PLATE TEST, 45 min ([6]; 10 mg/kg per os): 19.3 ± 1.9
- HOT PLATE TEST, 60 min ([6]; 10 mg/kg per os): 17.4 ± 0.8
- HOT PLATE TEST, Pre-test ([6]; 10 mg/kg per os): 15.3 ± 0.9
- HOT PLATE TEST, 15 min ([6]; 30 mg/kg per os): 29.7 ± 2.8
- HOT PLATE TEST, 30 min ([6]; 30 mg/kg per os): 26.0 ± 2.7
- HOT PLATE TEST, 45 min ([6]; 30 mg/kg per os): 20.3 ± 2.9
- HOT PLATE TEST, 60 min ([6]; 30 mg/kg per os): 18.7 ± 2.1
- HOT PLATE TEST, Pre-test ([6]; 30 mg/kg per os): 15.7 ± 1.3
- rise of the pain threshold ([6]; dose range between 1 and 30 mg kg^−1 per os): able to raise the pain threshold in a dose-dependent manner
- no. of writhes ([2]; 1 mg kg^−1 per os, 30 min before the test): 28.5 ± 2.8
- no. of writhes ([2]; 10 mg kg^−1 per os, 30 min before the test): 21.8 ± 3.1
- no. of writhes ([2]; 30 mg kg^−1 per os with naloxone 1 mg kg^−1 i.p. 15 min before): 13.6 ± 3.0
- no. of writhes [2, 8]: 12.7 ± 2.6
- antagonism of the analgesia by naloxone ([2]; 30 mg kg^−1 per os, naloxone 1 mg kg^−1 i.p.): not antagonized by the opioid antagonist naloxone
- onset of the effect after administration ([1]; 10 mg/kg per os): 15 min
- time up to which the effect remained unchanged ([1]; 10 mg/kg per os): up to 45 minutes
- PAW PRESSURE, AFTER TREATMENT (15 min) ([1]; 10 mg/kg per os, left paw): 69.5 ± 4.4 g
- PAW PRESSURE, BEFORE TREATMENT ([1]; 10 mg/kg per os, left paw): 61.9 ± 3.4 g
- reversal of hyperalgesia ([1]; 10 mg/kg per os, ligation 14 days earlier): able to reverse, in a statistically significant manner
- PAW PRESSURE, AFTER TREATMENT (15 min) ([1]; 10 mg/kg per os, right paw): 48.3 ± 3.5 g
- PAW PRESSURE, BEFORE TREATMENT ([1]; 10 mg/kg per os, right paw): 25.2 ± 3.3 g
- PAW PRESSURE, AFTER TREATMENT (15 min) ([1]; 30 mg/kg per os, left paw): 81.6 ± 3.1 g
- PAW PRESSURE, BEFORE TREATMENT ([1]; 30 mg/kg per os, left paw): 59.2 ± 3.8 g
- PAW PRESSURE, AFTER TREATMENT (15 min) ([1]; 30 mg/kg per os, right paw): 66.3 ± 3.3 g
- PAW PRESSURE, BEFORE TREATMENT ([1]; 30 mg/kg per os, right paw): 24.8 ± 3.2 g
- PAW PRESSURE TEST, AFTER TREATMENT 15 min ([7]; 10 mg/kg per os): 34.6 ± 3.1^ g
- PAW PRESSURE TEST, AFTER TREATMENT 30 min ([7]; 10 mg/kg per os): 36.7 ± 3.5^ g
- PAW PRESSURE TEST, AFTER TREATMENT 45 min ([7]; 10 mg/kg per os): 31.9 ± 3.5 g
- PAW PRESSURE TEST, AFTER TREATMENT 60 min ([7]; 10 mg/kg per os): 26.9 ± 2.8 g
- PAW PRESSURE TEST, Pre-test ([7]; 10 mg/kg per os): 23.8 ± 3.6 g
- PAW PRESSURE TEST, AFTER TREATMENT 15 min ([7]; 30 mg/kg per os): 43.6 ± 3.9 g
- PAW PRESSURE TEST, AFTER TREATMENT 30 min ([7]; 30 mg/kg per os): 48.9 ± 3.6 g
- PAW PRESSURE TEST, AFTER TREATMENT 45 min ([7]; 30 mg/kg per os): 41.6 ± 3.6 g
- PAW PRESSURE TEST, AFTER TREATMENT 60 min ([7]; 30 mg/kg per os): 31.7 ± 3.3 g
- PAW PRESSURE TEST, Pre-test ([7]; 30 mg/kg per os): 22.9 ± 3.5 g
